Measurements published in ChEMBL document CHEMBL1141271, “Laurendecumallenes A-B and laurendecumenynes A-B, halogenated nonterpenoid C(15)-acetogenins from the marine red alga Laurencia decumbens” (J Nat Prod, 2007).

System: A549
Test: Cytotoxicity against human A549 cells
Format: functional, cell-based

C#C/C=C\C[C@@H]1O[C@@H]2C[C@H](Br)[C@H](CC)O[C@@H]2C[C@@H]1Br
IC50: > 10 µg/mL

CC[C@H]1O[C@@H]2C[C@@H](C=C=CBr)O[C@@H]2C[C@@H](O)[C@H](O)C[C@@H]1Br [LAURENDECUMALLENE A]
IC50: > 10 µg/mL

CC[C@@H](Br)[C@H]1C[C@H](O)[C@H](O)C[C@H]2O[C@H](C=C=CBr)C[C@H]2O1 [LAURENDECUMALLENE B]
IC50: > 10 µg/mL

C#C/C=C\C[C@H]1O[C@@H]2C[C@H](Br)[C@@H](CC)O[C@H]1C[C@H]2OO [LAURENDECUMENYNE A]
IC50: > 10 µg/mL

C#C/C=C\C[C@@H]1O[C@@H]2C[C@H](Br)[C@H](CC)O[C@@H]2C[C@@H]1Cl [LAURENDECUMENYNE B]
IC50: > 10 µg/mL
